Assay results reported in patent publication US11667632B2, “2-(1H-indazol-3-yl)-3H-imidazo[4,5-C]pyridines and their anti-inflammatory uses thereof” (BioSplice Therapeutics, Inc., priority 2015, dated 2023).

Key:
IL-6 = experiment: Inhibition of IL-6 in LPS-stimulated human monocyte cells (THP-1), HTRF; type: cell-based; conditions: Homo sapiens; THP-1 cells, LPS 500 ng/mL, IL-6 by HTRF
Summary of the method: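 THP-1 cells were kept 24 h in 1% FBS, then given compound (1:3, 10-point series from 10 μM, 0.1% DMSO) for 2 h before 500 ng/mL LPS for 22 h at 37 °C. IL-6 was measured by HTRF 665/620 ratio. EC50 came from four-parameter fits normalized to DMSO, with % inhibition at 10 μM reported when EC50 >10 μM.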

IL-1β = experiment: Inhibition of IL-1β in LPS-stimulated primary PBMCs (MSD U-plex); type: cell-based; conditions: human PBMCs, LPS (500 ng/mL), Compound 10 (150 nM), 24 hrs; MSD platform; FIG. 15
Procedure: Primary peripheral blood mononuclear cells (PBMCs) freshly isolated from healthy human donors were obtained from AllCells Inc. and utilized for assays immediately. Compound 10 was dissolved in DMSO as a 10 mM stock and used to prepare compound source plates. A serial dilution (8-point dose-response) and compound transfer was performed using the ECHO 550 (Labcyte, Sunnyvale, Calif.) into 96-well clear bottom assay plates (Greiner Bio-One) with appropriate DMSO backfill for a final DMSO concentration of 0.05%. PBMCs were plated at 2×10e^5 cells/well in Roswell Park Memorial Institute (RPMI) 1640 Medium (Catalog #21870-100, Buffalo, N.Y.) with 1% L-glutamine, 1% HEPES, 1% Sodium Pyruvate, 2% Sodium Bicarbonate supplemented with 100 units/mL penicillin, 50 μg/mL streptomycin and 1% fetal bovine serum (Catalog #16140089, Life Technologies, Carlsbad, Calif.). […]
Supernatants were diluted appropriately for ELISA. […] Following several washes to remove unbound avidin-HRP, the TMB substrate was added and the plates were read on the Cytation 3 plate reader (Biotek Inc., Winooski, Vt.) at an absorbance of 450 nm with correction at 570 nm. […] Inhibition profile and EC50 was calculated using Prism 5 (GraphPad Software Inc, La Jolla, Calif., USA). […] Levels of cytokines were calculated using software form Meso Scale Discovery.

- EC50 (IL-6): 13 nM
Compound: CC(C)CC(=O)Nc1cncc(-c2ccc3[nH]nc(-c4nc5c(-c6cccc(F)c6)cncc5[nH]4)c3c2)c1 [Compound 10]
- Inhibition of IL-1β (IL-1β): Inhibition
